In patent publication US8889708B2 (Boehringer Ingelheim International GmbH, priority 2013, dated 2014):

Tests used:
[1] = target: recombinant human DPPI (Homo sapiens (Human), UniProt P53634); test: Inhibition of Human DPPI (Cathepsin C); format: biochemical; settings: substrate Gly-Arg-AMC, 30 min room temperature
Excerpt: Inhibition of Human DPPI (Cathepsin C)
Materials: Microtiterplates (Optiplate-384 F) were purchased from PerkinElmer (Prod. No. 6007270). The substrate Gly-Arg-AMC was from Biotrend (Prod.-No. 808756 Custom peptide). Bovine serum albumin (BSA; Prod. No. A3059) and Dithiothreitol (DTT; Prod. No D0632) were from Sigma. TagZyme buffer was from Riedel-de-Haen (Prod.-No. 04269), NaCl was from Merck (Prod.-No. 1.06404.1000) and morpholinoethane sulfonic acid (MES), was from Serva (Prod.-No. 29834). The DPP1 inhibitor Gly-Phe-DMK was purchased from MP Biomedicals (Prod.-No. 03DK00625). The recombinant human DPPI was purchased from Prozymex. All other materials were of highest grade commercially available.
The following buffers were used: MES buffer: 25 mM MES, 50 mM NaCl, 5 mM DTT, adjusted to pH 6.0, containing 0.1% BSA; TAGZyme Buffer: 20 mM NaH2PO4, 150 mM NaCl adjusted to pH 6.0 with HCl
The recombinant human DPPI was diluted in TAGZyme buffer to 1 U/ml (38.1 μg/ml, respectively), and then activated by mixing in a 1:2 ratio with a Cysteamine aqueous solution (2 mM) and incubating for 5 min at room temperature.
Five uL test compound (final concentration 0.1 nM to 100 μM) in aqua bidest (containing 4% DMSO, final DMSO concentration 1%) were mixed with 10 μL of DPPI in MES buffer (final concentration 0.0125 ng/μL) and incubated for 10 min. Then, 5 μL of substrate in MES buffer (final concentration 50 μM) were added. The microtiter plates were then incubated at room temperature for 30 min. Then, the reaction was stopped by adding 10 μL of Gly-Phe-DMK in MES-buffer (final concentration 1 μM). The fluorescence in the wells was determined using a Molecular Devices SpectraMax M5 Fluorescence Reader (Ex 360 nm, Em 460 nm) or an Envision Fluorescence Reader (Ex 355 nm, Em 460 nm).
Each assay microtiter plate contained wells with vehicle controls (1% DMSO in bidest+0.075% BSA) as reference for non-inhibited enzyme activity (100% Ctl; high values) and wells with inhibitor (Gly-Phe-DMK, in bidest+1% DMSO+0.075% BSA, final concentration 1 μM) as controls for background fluorescence (0% Ctl; low values).
The analysis of the data was performed by calculating the percentage of fluorescence in the presence of test compound in comparison to the fluorescence of the vehicle control after subtracting the background fluorescence using the following formula: (RFU(sample)−RFU(background))*100/(RFU(control)−RFU(background))
Data from these calculations were used to generate IC50 values for inhibition of DPPI, respectively.

[2] = Metabolic stability with human liver microsomes; format: in vitro ADME; settings: pH 7.6; pooled human liver microsomes, 37° C., 1 μM test compound, 1 mg/ml protein, NADPH; read-out: In vitro stability in human liver microsome incubations t½
Procedure: Determination of Metabolic Stability with Human Liver Microsomes
The metabolic degradation of the test compound is assayed at 37° C. with pooled human liver microsomes. The final incubation volume of 100 μl per time point contains TRIS buffer pH 7.6 (0.1 M), magnesium chloride (5 mM), microsomal protein (1 mg/ml) and the test compound at a final concentration of 1 μM. Following a short preincubation period at 37° C., the reactions are initiated by addition of beta-nicotinamide adenine dinucleotide phosphate, reduced form (NADPH, 1 mM) and terminated by transferring an aliquot into acetonitrile after different time points. Additionally, the NADPH-independent degradation is monitored in incubations without NADPH, terminated at the last time point. The [%] remaining test compound after NADPH independent incubation is reflected by the parameter c(control) (metabolic stability). The quenched incubations are pelleted by centrifugation (10,000 g, 5 min). An aliquot of the supernatant is assayed by LC-MS/MS for the amount of parent compound.
The half-life (t½ INVITRO) is determined by the slope of the semilogarithmic plot of the concentration-time profile. The intrinsic clearance (CL_[…]) is calculated by considering the amount of protein in the incubation: CL_[…][μl/min/mg protein]=(ln 2/(half-life[min]*protein content[mg/ml]))*1,000.

Chain of recombinant human DPPI (P53634 231-394): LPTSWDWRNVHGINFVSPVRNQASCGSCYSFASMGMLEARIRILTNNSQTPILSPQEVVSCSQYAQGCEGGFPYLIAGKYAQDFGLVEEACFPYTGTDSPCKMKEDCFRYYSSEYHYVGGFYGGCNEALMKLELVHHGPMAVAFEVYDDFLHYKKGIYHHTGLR
Chain of recombinant human DPPI (P53634 395-463): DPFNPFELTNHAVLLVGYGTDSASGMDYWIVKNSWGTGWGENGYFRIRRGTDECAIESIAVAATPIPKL
Chain of recombinant human DPPI (P53634 25-134): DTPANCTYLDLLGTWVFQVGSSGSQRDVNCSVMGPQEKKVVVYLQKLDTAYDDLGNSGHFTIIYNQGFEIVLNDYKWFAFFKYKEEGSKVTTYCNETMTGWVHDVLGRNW

IC50 [1] [nM]	half-life at 1 μM [2] [h]	SMILES
17.1	> 2.17	CN1C(=O)Cc2ccc(-c3ccc(C[C@@H](C#N)NC(=O)C45CCC(CC4)CN5)cc3)cc21 [Example 2]
50.1	> 2.17	CN1Cc2cc(-c3ccc(C[C@@H](C#N)NC(=O)C45CCC(CC4)CN5)cc3)ccc2C1=O [Example 4]
17	> 2.17	CS(=O)(=O)c1ccc(-c2ccc(C[C@@H](C#N)NC(=O)C34CCC(CC3)CN4)c(F)c2)cc1 [Example 21, N-[(1S)-1-cyano-2-[2-fluoro-4-(4-methanesulfonylphenyl)phenyl]ethyl]-2-azabicyclo[2.2.2]octane-1-carboxamide]
6.8	> 2.17	N#C[C@H](Cc1ccc(-c2ccc3c(c2)CCNC3=O)cc1F)NC(=O)C12CCC(CC1)CN2 [Example 22]
6.6	> 2.17	N#C[C@H](Cc1ccc(-c2ccc3c(c2)NC(=O)C3)cc1F)NC(=O)C12CCC(CC1)CN2 [Example 23]
4.3	> 2.17	COCCN1C(=O)Cc2ccc(-c3ccc(C[C@@H](C#N)NC(=O)C45CCC(CC4)CN5)c(F)c3)cc21 [Example 26]
2.2	> 2.17	CC1(C)OC(=O)c2ccc(-c3ccc(C[C@@H](C#N)NC(=O)C45CCC(CC4)CN5)c(F)c3)cc21 [Example 27]
4.9	> 2.17	CN1C(=O)Cc2ccc(-c3ccc(C[C@@H](C#N)NC(=O)C45CCC(CC4)CN5)c(F)c3)cc21 [Example 28]
4.3	> 2.17	N#C[C@H](Cc1ccc(-c2csc(C(N)=O)c2)cc1F)NC(=O)C12CCC(CC1)CN2 [Example 31]
